The source of these data is a melting point compilation (Tetko et al.; mined from patent text by program, amines drawn as free bases though some values may be those of a salt).

In general, melting point refers to the temperature, or range, at which the solid turns liquid. On to `Cc1cccc(-c2nc3cccnn3c2-c2ccnc(NC(=O)c3cccc(F)c3)c2)c1`, for which the melting point lay within 204 to 205 °C.
Molecule `COc1c(C)cc(-c2nn(C(C)c3oc4ccccc4c(=O)c3-c3cccc(F)c3)c3ncnc(N)c23)cc1C` (configuration not stated) registered a melting point of 234 to 236 °C.
In the case of `Cc1cc2c(cc1Sc1ccc(C(=O)O)cn1)C(C)(C)CCC2(C)C`, the melting point was in the range of 257 to 260 °C.
With `Cc1nc2c3c(ccn2c1C)C(=O)[C@](O)(Cc1ccccc1)[C@@H](c1ccccc1)N3`, the melting point fell in the range of 248 to 251 °C.
`CCOC(=O)c1ccc(OCC(=O)c2ccc3c(c2)C(C)(C)CCC3(C)C)cc1` displayed a melting point of 105 to 107 °C.
The molecule `COC(=O)c1cc(O)c2cc3c(O)cc(C(=O)OC)nc3c(C)c2n1` displayed a melting point of 296 °C.
`O=c1c2cc(-c3nnn[nH]3)ccc2sc2ncccc12` came in with a melting point of more than 300 °C.
In the case of `Cc1cccc(NC(c2ccc(F)c(F)c2)c2ccc3cccnc3c2O)n1` (configuration not stated) it was 162 to 165 °C; in that of `COC(=O)c1sc(-c2ccc(OCc3ccc([N+](=O)[O-])cc3)c(OC)c2)cc1NC(C)=O`, 193 to 194 °C; in that of `CS(=O)(=O)c1ccc(-c2cc(CO[N+](=O)[O-])nn2Cc2ccccc2)cc1`, 94 to 96 °C.
Consider `COC(=O)CCCCCCCCCNS(=O)(=O)c1ccc(Cl)cc1`, for which the melting point lay in the range of 68 to 70 °C.
In the case of `CN(CCOc1ccc(C=C2SC(=O)NC2=O)cc1)C(=O)c1ccccc1` it was 178 to 180 °C; in that of `Cc1sc(I)c(C)c1CO`, 118 to 120 °C.
In turn, `CCCc1nc2c(N)nc3cc(OCc4cccnc4)ccc3c2s1` came in with a melting point of 167 to 169 °C.
`CN(CCO)CC1(SSC2(CN(C)CCO)CCCCC2)CCCCC1` yielded a melting point of 65 to 70 °C.
Turning to `CC(C)(C)c1cc(CCc2cc(CO)cc(CCc3cc(C(C)(C)C)cc(C(C)(C)C)c3)c2)cc(C(C)(C)C)c1`, the melting point is 101 °C.
Under `O=C1NC(=O)C2(C=Cc3c2csc3Cl)N1` (configuration not stated) stands 224 to 225 °C; under `CC(=O)c1ccc2c(c1)CCc1ccc(C(=O)O)cc1S2`, 230 to 232 °C.
In turn, `COc1ccc(CC(=Nc2ccccc2)NC(=S)NCc2cccnc2)cc1` registered a melting point of 175 to 176 °C.
On to `Cc1nc(C(O)c2ccc(Cl)cc2)sc1C` (configuration not stated), for which the melting point stood at 107 °C.
`Cn1cc(C(=O)c2ccc3ccccc3c2)cc1C(=O)c1cccnc1` came in with a melting point of 132 to 133 °C.
In turn, `O=[N+]([O-])c1cc(-c2ccoc2)ccc1Nc1cc(-n2ccnc2)ncn1` showed a melting point of 198 to 200 °C.
Regarding `COC(=O)c1ccc2occ(-c3ccc(S(C)=O)cc3)c2c1` (configuration not stated), the melting point is 145 to 146 °C.
The molecule `CCCCCCCCCCOc1ccc(OCCCC#CCOC)cc1` gave a melting point of 33 to 34 °C.
For the molecule `CCOC(=O)COc1ccc(C(=O)CN2CCN(c3ccncc3)CC2)cc1`, the melting point is 41 to 42 °C.
Under `COC(=O)CC1(O)CC2CCC1(CS(=O)(=O)N1CCC3(C=Cc4ccccc43)CC1)C2(C)C` (configuration not stated) stands 81 to 83 °C; under `CCc1c(CC(=O)NCCCCCCN)ccc(OC)c1OC`, 136 to 138 °C; under `S=C(NCCCCN(Cc1ccc(Cl)c(Cl)c1)c1ccc(Br)cn1)NCCCn1ccnc1`, 139 to 141 °C.
Consider `NCCCN(CC1COc2ncccc2O1)c1ccc(Cl)nn1` (configuration not stated), for which the melting point is 101 °C.
With `CC1(C)CCC(C)(C)c2cc(-c3ccccc3C=O)ccc21`, the melting point lay within 85 to 87 °C.
The molecule `COC(=O)C#Cc1c(C#N)nn(-c2c(Cl)cc(C(F)(F)F)cc2Cl)c1N` gave a melting point of 201 to 202 °C.
Take `CC(C)(C)COc1ccc([N+](=O)[O-])cc1`: the melting point was determined as 36 °C.
`COc1cc(C)nc(NC(=O)NS(=O)(=O)c2cccc3cccnc23)n1` had a melting point of 181 to 185 °C.
`O=C(O)CCC(=O)Cc1ccc2c(c1)Cc1cccnc1O2` yielded a melting point of 146 to 147 °C.
Under `O=C(O)COc1ccc(C(=O)c2cccc(Cl)c2)c(Cl)c1Cl` stands 155 to 156 °C.
Regarding `CCOc1ccc(CCCCCCC(=O)O)cc1`, the melting point was 65 to 66 °C.
On to `CNc1cccc(OC)c1[N+](=O)[O-]`, for which the melting point fell in the range of 58 to 59 °C.
`COc1ccc(-c2ccnc(Nc3cc(OC)c(OC)c(OC)c3)n2)cc1` yielded a melting point of 148 to 150 °C.
In the case of `COc1ccc(Cl)cc1C(=O)NCCc1ccc(-c2ccc(OC(C)C(=O)O)cc2)cc1` (configuration not stated), the melting point came to 145 °C.
In the case of `CCOC(=O)c1nc(SC)nc(OC)c1OCc1ccccc1` it was 48 to 49 °C; in that of `CN(C)c1ccc(C=Cc2ccc(S(C)(=O)=O)cc2)cc1`, 242 to 243 °C; in that of `Cc1cc(CN=C(O)c2cc(C(O)=NCc3cc(C)c(O)c(C(C)(C)C)c3)c(C(=O)O)cc2C(=O)O)cc(C(C)(C)C)c1O`, 267 to 269 °C.
With `CCOC(=O)NCCc1cccc(-c2ccnc3c(C#N)cnn23)c1`, the melting point lay within 133 to 135 °C.
The molecule `COc1ccc(C(=O)C23CC4CC(C2)CC(C(=O)c2ccc(OC)cc2)(C4)C3)cc1` came in with a melting point of 148 to 150 °C.
In the case of `COc1ccc(C(Nc2ccccc2)C(=O)OC(C)(C)C)cc1` (racemic) it was 99 °C; in that of `COC(=O)Nc1nc2cc(S(=O)CC(C)C)ccc2[nH]1` (configuration not stated), 198 to 201 °C; in that of `COc1cc(Nc2c(C#N)cnc3cc(-c4ccc(C=O)cc4)sc23)c(Cl)cc1Cl`, 261 to 262 °C.
Molecule `CC(C)(C)CC(=O)Nc1ccc2oc3c(c2c1)CCCCC3` registered a melting point of 182 to 183 °C.
Regarding `CCCCN(C(=O)c1ccccc1)C(=NC(=O)c1ccccc1)Nc1ccc(C(N)=O)cc1`, the melting point lay in the range of 90 to 92 °C.
In the case of `CCOC(=O)C(C#N)C1(C#N)C(=O)N(Cc2ccc(F)cc2)c2c(C)cccc21` (configuration not stated) it was 130 to 132 °C.
As for `CC=CCCCn1cnc2c1c(=O)n(C)c(=O)n2C`, the melting point is 58 to 64 °C.
Molecule `COc1cc(NC(=O)Nc2ccc(N3CCN(C(=O)Nc4cc(OCCO)ccc4Cl)CC3)cc2)cc(OC)c1` had a melting point of 191 to 192 °C.
`CNc1cccc(-c2ccnc3c(C(=O)c4cccs4)cnn23)c1` returned a melting point of 188 to 190 °C.
`O=C(O)c1cc2cc(Cl)ccc2nc1NC(Cc1ccc(Oc2ccc3ccccc3n2)cc1)C(=O)O` (configuration not stated) showed a melting point of 136 °C.
Under `CCCCCCCCCCCC(=O)N[C@@H](Cc1ccc(O)cc1)C(=O)OC` stands 89 °C.
Under `O=C(CNC(=O)c1cc([N+](=O)[O-])ccc1Cl)OCc1ccccc1` stands 116 to 118 °C; under `O=C(Nc1ccccn1)Nc1cccc2c1C1CC3(CCN1C2=O)SCCS3` (configuration not stated), 242 °C; under `NP(N)(=O)NCCCBr`, 60 to 65 °C.
`NC(=O)CCCOc1cccc(-c2n[nH]c3c2Cc2ccccc2-3)c1` had a melting point of 200 to 202 °C.
In the case of `Cc1ccc(C)c(CN(c2ncnc3c2cnn3C2CCCO2)C2CCCC2)c1` (configuration not stated) it was 173 to 174 °C.
Molecule `CC(CCc1ccc2c(c1)OCO2)NCC(O)c1cc(C(N)=O)cs1` (configuration not stated) came in with a melting point of 112 to 114 °C.
In the case of `C1=C(c2cccs2)NN=C(c2cccs2)C1c1cccs1` (configuration not stated) it was 168 °C.
In the case of `CCc1c(Cc2ccccc2)n(COCCO)c(=O)[nH]c1=O` it was 120 to 122 °C; in that of `O=C(O)C1=Cc2cc(C(=O)c3ccc(O)cc3)ccc2OC1C(F)(F)F` (configuration not stated), 234 to 240 °C; in that of `N#Cc1ccccc1/C=C/C(=O)Nc1cc(Cl)cc(NC(=N)c2ccccc2)c1`, 220 to 221 °C.
As to `O=C(NCCCN1CCN(Cc2ccccc2)CC1)Nc1ccccc1`, the melting point was 45 to 47 °C.
In the case of `CCCCCCCCC#Cc1c(F)ccc(C(=O)O)c1F`, the melting point turned out to be 117 °C.
Molecule `Cc1ccc(C(OS(C)(=O)=O)(C(F)(F)F)C(F)(F)F)cc1C(OS(C)(=O)=O)(C(F)(F)F)C(F)(F)F` displayed a melting point of 107 °C.
`O=C(c1ccncc1)c1cc(Br)cc(Br)c1` returned a melting point of 89 to 92 °C.
In turn, `O=S(=O)(NN=C(Cl)c1ccc(F)cc1Cl)c1ccccc1` registered a melting point of 133 to 135 °C.
With `CC1(N2C(=O)c3cccc([N+](=O)[O-])c3C2=O)C=CC(OC(F)(F)C(F)C(F)(F)F)=CC1` (configuration not stated), the melting point was determined as 121 °C.
In turn, `O=c1[nH]c(Cc2ccc(OCCc3coc(-c4ccccc4)n3)cc2)no1` had a melting point of 154 to 158 °C.
In turn, `ClCc1nc2ccccc2s1` showed a melting point of 34 °C.
`O=S1(=O)Oc2ccccc2Nc2ncccc21` had a melting point of 208 to 209 °C.
In turn, `CNc1ccc(N2CCOC2=O)cc1[N+](=O)[O-]` came in with a melting point of 192 °C.
In the case of `C=C1CC(C)(c2ccc(Nc3c4ccccc4nc4occc34)cc2)OC1=O` (configuration not stated) it was 85 to 87 °C; in that of `Cc1cc(-c2ccccc2)nc(SSc2nc(-c3ccccc3)cc(C)c2C#N)c1C#N`, 200 to 201 °C.
Molecule `C=CCC(NC(=O)c1ccc(OC)cc1)C(C)=O` (configuration not stated) came in with a melting point of 58 to 59 °C.
`Cc1onc(C(F)(F)F)c1CS(=O)(=O)C1=NOC(C)(C)C1` displayed a melting point of 135 to 136 °C.
Turning to `CCOCCNC(=O)c1cccc(-c2cccc3cc(Cc4cc(F)cc(Cl)c4)sc23)c1`, the melting point lay within 79 to 80 °C.
In the case of `COc1ccc2cc(C(=O)C(C)N3CCN(Cc4ccccc4)CC3)ccc2c1` (configuration not stated) it was 149 to 150 °C; in that of `CSc1c(NC(C)=O)cnc2ccccc12`, 137 to 138 °C.
In turn, `NC(=O)c1ccc(F)c2c1OCC(N(CCCc1c[nH]c3c(F)cc(F)cc13)C1CCC1)C2` (configuration not stated) displayed a melting point of 136 °C.
Under `COc1ccc(Cn2nnc(-c3cccc(C(=O)Cl)c3)n2)cc1` stands 122 to 124 °C.
As for `COC(=O)c1c(Cl)cc(Cl)cc1NC(=O)CSc1ccc(NC(=O)Cc2ccccc2)cc1`, the melting point lay within 156 to 158 °C.
`CCCCC1(O)CCC2C3CCC4=CC(=O)CC(C)C4(C)C3CCC21C` (configuration not stated): the melting point is 85 °C.
Under `COc1ccccc1CC(=O)N1C[C@H]2C[C@H](CO)C[C@](O)(c3ccccc3OC)[C@H]2C1` (racemic) stands 162 °C.
